Here are results for 4 compounds from patent US10206916B2, “Cabozantinib salts and their use as anti-cancer agents” (Sandoz AG, priority 2015, dated 2019).

The conditions of data set [1]: reported in WO2010/083414; cited from earlier work.
Data set [2] is described as follows: Dynamic vapour sorption (DVS) with post-DVS XRPD. Particulars: for water up take (weight gain) by DVS: between 20% and 70% RH, ca. 25° C.; for hygroscopicity by DVS: 20% to 70% RH, non-hygroscopic = weight gain of less than 2 weight-%; for Post-DVS XRPD analysis: after DVS sorption/desorption cycle; for hygroscopicity compared with cabozantinib malate: based on DVS isotherm. It is filed as physicochemical. On the procedure: XRPD analysis was carried out on a Siemens D5000 diffractometer, scanning the samples between 3 and 50 or 30°2-theta. For samples of less than 100 mg, 10-20 mg of material was gently compressed onto a glass disc inserted into an XRPD sample holder. For samples of more than 100 mg, ca. 100 mg of material was gently compressed into a plastic XRPD sample holder to ensure a smooth sample surface, just above the level of the sample holder. The sample was then loaded into the diffractometer running in reflection mode and analyzed using the following experimental conditions. C) Water Content: Dynamic Vapour Sorption (DVS) Approximately 10-20 mg of sample was placed into a vapour sorption balance pan and loaded into a DVS-1 dynamic vapour sorption balance by Surface Measurement Systems. The sample was subjected to a ramping profile from 20-90% relative humidity (RH) at 10% increments, maintaining the sample at each step until a stable weight had been achieved (99.5% step completion). After completion of the sorption cycle, the sample was dried using the same procedure, but all the way down to 0% RH and finally taken back to the starting point of 20% RH. The weight change during the sorption/desorption cycles were plotted, allowing for the hygroscopic nature of the sample to be determined.

For data set [3] the following is noted: cited from earlier work.
Data set [4] is described as follows: Thermogravimetric/differential thermal analysis (TG/DTA). It is filed as physicochemical. On the procedure: B) Organic Solvent Content: Thermogravimetric Analysis (TGA) Approximately, 5-10 mg of material was accurately weighed into an open aluminium pan and loaded into a simultaneous thermogravimetric/differential thermal analyser (TG/DTA) and held at room temperature. The sample was then heated at a rate of 10° C./min from 25° C. to 300° C. during which time the change in sample weight was recorded along with any differential thermal events (DTA). Nitrogen was used as the purge gas, at a flow rate of 100 cm^3/min.

The nature of data set [5]: Aqueous solubility measurement (slurry in deionized water, HPLC analysis). It is filed as physicochemical. The method, then:
HPLC analysis was performed according to the following conditions: • Instrument: Agilent 1100 • Column: Grace Smart RP 185μ 150×4.6 mm • Column Temperature: 30° C. UV wavelength: 249 nm • Injection Volume: 10 μl • Flow Rate: 1.2 ml/min • Mobile Phase A: 0.1% Phosphoric acid • Mobile Phase B: 0.1% Phosphoric acid in acetonitrile • Gradient program: H) Aqueous Solubility Measurements Each salt was individually slurried in deionized water and subjected to shaking for ca. 24 h at ambient temperature (ca. 22° C.). The resulting saturated solutions were filtered and analyzed by HPLC analysis. XRPD analysis was carried out on any solid retained after the solubility experiment.

Setting [6] is: listed as acetate salt, acetate.
Setting [7] is: listed as cabozantinib succinate Form A, succinate.
The mark [8] stands for this setting: listed as crystalline succinate salt of cabozantinib, succinate.

In the case of `COc1cc2nccc(Oc3ccc(NC(=O)C4(C(=O)Nc5ccc(F)cc5)CC4)cc3)c2cc1OC` [(L)-malate, reference compound], in data set [1], the hygroscopicity as reported entry is reported as “non-hygroscopic”. The “weight gain relative to cabozantinib succinate Form A” value in data set [2] (DVS, 20 to 70% RH) worked out at 10 fold. Further, the “water up take (weight gain) by DVS” value was 0.3 weight-% in data set [2], “about 0.3 weight-%” in data set [2] (listed as L-malate) and “about 0.3 weight-%” in data set [2] (listed as cabozantinib malate). For the same compound, the “solubility compared with cabozantinib free base” value in data set [3] is listed as “enhanced solubility”. In data set [4] (at ca. 178° C.), the “TG/DTA weight loss corresponding to the endotherm in DTA trace at ca. 178° C.” value is “C. and 1% loss”. The “TG/DTA weight loss below ca. 178° C.” value in data set [4] (below ca. 178° C.) was found to be 1.2 weight-% loss.
On to `CC(=O)O.COc1cc2nccc(Oc3ccc(NC(=O)C4(C(=O)Nc5ccc(F)cc5)CC4)cc3)c2cc1OC` [Form A-1, N-{4-[(6,7-dimethoxy-4-quinolinyl)oxy]phenyl}-N′-(4-fluorophenyl)-1,1-cyclopropanedicarboxamide acetate], for which, in data set [2], the “hygroscopicity by DVS” value is listed as “non-hygroscopic” and the “hygroscopicity compared with cabozantinib malate” value is given as “less hygroscopic”. In addition, the “Post-DVS XRPD analysis” value in data set [2] (acetate) was “remained crystalline and consistent with the input form”. For the same compound, in data set [2] (setting [6]), the “Post-DVS XRPD analysis” value is “remained crystalline” and the “water up take (weight gain) by DVS” value is on record as approximately 0.1 weight-%.
In general, solubility refers to how much of the substance goes into solution per volume. A low value points to a poorly soluble substance. Regarding `COc1cc2nccc(Oc3ccc(NC(=O)C4(C(=O)Nc5ccc(F)cc5)CC4)cc3)c2cc1OC.O=C(O)CCC(=O)O` [Form A, N-{4-[(6,7-dimethoxy-4-quinolinyl)oxy]phenyl}-N′-(4-fluorophenyl)-1,1-cyclopropanedicarboxamide succinate], in data set [2], the “hygroscopicity by DVS” value is on record as “non-hygroscopic”. The “Post-DVS XRPD analysis” value was “remained crystalline and consistent with the input form” in data set [2] (setting [7]); “remained crystalline and was consistent with the input form” in data set [2] (setting [8]). Moreover, the “hygroscopicity compared with cabozantinib malate” value is reported as “less hygroscopic” in data set [2] (setting [7]) and “lower hygroscopicity” in data set [2] (succinate). Moreover, the “water up take (weight gain) by DVS” value in data set [2] (setting [7]) is “about 0.03 weight-%”; in data set [2] (setting [8]) it was “ca. 0.03 weight-%”; in data set [2] (succinate), 0.03 weight-%. Moreover, in data set [5] (comparison in words, no malate value printed), the “solubility compared to cabozantinib malate” value is “improved solubility”. Also, the “solid form after the solubility experiment (XRPD)” value in data set [5] (solid retained after solubility experiment) is on record as “consistent with the input succinate salt”. In data set [5] (thermodynamic from solid, deionized water, shaking ca. 24 h, ambient temperature (ca. 22° C.), HPLC analysis), this compound had a solubility of 164 µg/mL. For the same compound, the “TG/DTA weight loss corresponding to the endotherm in the DTA trace at ca. 173° C.” value in data set [4] (heating rate 10° C./min, at ca. 173° C., listed as cabozantinib succinate Form A, succinate) is listed as approximately 1 weight-%. For the same compound, the “TG/DTA weight loss below ca. 173° C.” value in data set [4] (heating rate 10° C./min, below ca. 173° C., listed as cabozantinib succinate Form A, succinate) is less than 0.6 weight-%.
Consider `COc1cc2nccc(Oc3ccc(NC(=O)C4(C(=O)Nc5ccc(F)cc5)CC4)cc3)c2cc1OC` [Cabozantinib, N-{4-[(6,7-dimethoxy-4-quinolinyl)oxy]phenyl}-N′-(4-fluorophenyl)-1,1-cyclopropanedicarboxamide], for which the “solubility (BCS classification)” value in data set [3] is recorded as “low solubility”.
